From ChEMBL document CHEMBL1153258, “Synthesis and antiviral activity of 3-substituted imidazo[1,2-a]pyridines” (Bioorg Med Chem Lett, 1994)
Values after ≈ are worked out from the molar mass of the structure shown.

Tests used:
E6SM [1] = assay: Cytotoxicity (to alter cell morphology) against E6SM cell cultures; assay type: functional; conditions: Homo sapiens
Vero [2] = assay: Antiviral activity (to reduce virus-induced cytopathogenicity) against Reovirus-1 in vero cells; assay type: functional; conditions: Chlorocebus sabaeus
HEL [3] = assay: Antiviral activity against thymidine kinase-negative (TK-) O7/1 strain of Varicella zoster virus to reduce plaque formation in human embryonic lung (HEL) cells; assay type: functional, cell-based
[4] = Cytotoxicity (to reduce cell growth) against Cytomegalovirus in human embryonic lung (HEL) cells; assay type: cell-based
E6SM [5] = assay: Antiviral activity (to reduce virus-induced cytopathogenicity) against Herpes simplex virus-2 (G) in E6SM cell cultures; assay type: functional; conditions: Homo sapiens
HEL [6] = assay: Antiviral activity against thymidine kinase-positive (TK+) YS strain of Varicella zoster virus to reduce plaque formation in human embryonic lung (HEL) cells; assay type: functional, cell-based
HEL [7] = assay: Antiviral activity against Cytomegalovirus (AD-169 strain) to reduce plaque formation in human embryonic lung (HEL) cells; assay type: functional, cell-based
Vero [8] = assay: Minimum cytotoxic concentration (to alter cell morphology) against vero cells; assay type: functional; conditions: Chlorocebus sabaeus
HEL [9] = assay: Cytotoxicity (to alter cell morphology) against Cytomegalovirus in human embryonic lung (HEL) cells; assay type: functional
Vero [10] = assay: Antiviral activity (to reduce virus-induced cytopathogenicity) against Parainfluenza-3 virus in vero cells; assay type: functional; conditions: Chlorocebus sabaeus
Vero [11] = assay: Antiviral activity (to reduce virus-induced cytopathogenicity) against Coxsackie virus in vero cells; assay type: functional; conditions: Chlorocebus sabaeus
E6SM [12] = assay: Antiviral activity (to reduce virus-induced cytopathogenicity) against Vesicular stomatitis virus in E6SM cell cultures; assay type: functional; conditions: Homo sapiens
E6SM [13] = assay: Antiviral activity (to reduce virus-induced cytopathogenicity) against Herpes simplex virus-1 TK-VMW1837 in E6SM cell cultures; assay type: functional; conditions: Homo sapiens
HEL [14] = assay: Antiviral activity against thymidine kinase-positive (TK+) OKA strain of Varicella zoster virus to reduce plaque formation in human embryonic lung (HEL) cells; assay type: functional, cell-based
HeLa [15] = assay: Antiviral activity (to reduce virus-induced cytopathogenicity) against Vesicular stomatitis virus in HeLa cells; assay type: functional; conditions: Homo sapiens
E6SM [16] = assay: Antiviral activity (to reduce virus-induced cytopathogenicity) against Vaccinia virus in E6SM cell cultures; assay type: functional; conditions: Homo sapiens
Vero [17] = assay: Antiviral activity (to reduce virus-induced cytopathogenicity) against forest virus in vero cells; assay type: functional; conditions: Chlorocebus sabaeus
HeLa [18] = assay: Cytotoxicity (to alter cell morphology) against HeLa cells; assay type: functional; conditions: Homo sapiens
[19] = Cytotoxicity (to reduce cell growth) against Varicella-Zoster virus in human embryonic lung (HEL) cells; assay type: cell-based
Vero [20] = assay: Antiviral activity (to reduce virus-induced cytopathogenicity) against Sindbis virus in vero cells; assay type: functional; conditions: Chlorocebus sabaeus
E6SM [21] = assay: Antiviral activity (to reduce virus-induced cytopathogenicity) against Herpes simplex virus-1(KOS) in E6SM cell cultures; assay type: functional; conditions: Homo sapiens
HEL [22] = assay: Cytotoxicity (to alter cell morphology) against Varicella-Zoster virus in human embryonic lung (HEL) cells; assay type: functional
HEL [23] = assay: Antiviral activity against Cytomegalovirus (Davis strain) to reduce plaque formation in human embryonic lung (HEL) cells; assay type: functional, cell-based
E6SM [24] = assay: Antiviral activity (to reduce virus-induced cytopathogenicity) against Herpes simplex virus-1 TK-B2006 in E6SM cell cultures; assay type: functional; conditions: Homo sapiens
HeLa [25] = assay: Antiviral activity (to reduce virus-induced cytopathogenicity) against Polio virus-I in HeLa cells; assay type: functional; conditions: Homo sapiens
HEL [26] = assay: Antiviral activity against thymidine kinase-negative (TK-) YS/R strain of Varicella zoster virus to reduce plaque formation in human embryonic lung (HEL) cells; assay type: functional, cell-based
HeLa [27] = assay: Antiviral activity (to reduce virus-induced cytopathogenicity) against Coxsackie virus B4 in HeLa cells; assay type: functional; conditions: Homo sapiens

Structure (SMILES) | MCC (E6SM [1]) [µg/mL] | MIC (Vero [2]) [µg/mL] | CC50 [4] [µg/mL] | MIC (E6SM [5]) [µg/mL] | IC50 (HEL [6]) [µg/mL] | IC50 (HEL [7]) [µg/mL] | MCC (Vero [8]) [µg/mL] | MIC (Vero [10]) [µg/mL] | MIC (Vero [11]) [µg/mL] | MIC (E6SM [12]) [µg/mL] | MIC (E6SM [13]) [µg/mL] | MIC (HeLa [15]) [µg/mL] | MIC (E6SM [16]) [µg/mL] | MIC (Vero [17]) [µg/mL] | MCC (HeLa [18]) [µg/mL] | MIC (Vero [20]) [µg/mL] | MIC (E6SM [21]) [µg/mL] | MIC (E6SM [24]) [µg/mL] | MIC (HeLa [25]) [µg/mL] | MIC (HeLa [27]) [µg/mL] | further results
OCCSCc1c(-c2ccccc2)nc2ccccn12 | > 200 | > 10 | 80 (≈ 281 µM) | 70 (≈ 246 µM) | 35 (≈ 123 µM) | 20 (≈ 70.3 µM) | 40 | > 10 | 70 (≈ 246 µM) | > 40 | > 40 | > 100 | 70 (≈ 246 µM) | 20 (≈ 70.3 µM) | > 100 | 20 (≈ 70.3 µM) | 100 (≈ 352 µM) | > 40 | > 100 | > 100 | IC50 (HEL [3]): 26 µg/mL (≈ 91.4 µM); MCC (HEL [9]): > 40 µg/mL; IC50 (HEL [14]): 28 µg/mL (≈ 98.5 µM); CC50 [19]: 80 µg/mL (≈ 281 µM); MCC (HEL [22]): > 40 µg/mL; IC50 (HEL [23]): 25 µg/mL (≈ 87.9 µM); IC50 (HEL [26]): 10 µg/mL (≈ 35.2 µM)
O=c1[nH]c(=O)n([C@H]2C[C@H](O)[C@@H](CO)O2)cc1/C=C/Br [BRIVUDINE] | > 400 | > 400 | – | 20 (≈ 60 µM) | – | – | > 400 | > 400 | > 400 | > 400 | 1 (≈ 3 µM) | > 400 | 0.2 (≈ 0.6 µM) | > 400 | > 400 | > 400 | 0.004 (≈ 0.012 µM) | 2 (≈ 6 µM) | > 400 | > 400 | –
Cc1ccn2c(COCCO)cnc2c1 | > 400 | > 200 | > 200 | > 400 | > 40 | > 40 | > 200 | > 200 | > 200 | > 400 | > 400 | > 200 | > 400 | > 200 | 200 | > 200 | > 400 | > 400 | > 200 | > 200 | IC50 (HEL [3]): > 40 µg/mL; MCC (HEL [9]): > 40 µg/mL; IC50 (HEL [14]): > 40 µg/mL; CC50 [19]: > 200 µg/mL; MCC (HEL [22]): > 40 µg/mL; IC50 (HEL [23]): > 40 µg/mL; IC50 (HEL [26]): > 40 µg/mL
Cc1ccn2c(CSCCO)cnc2c1 | > 200 | > 40 | 70 (≈ 315 µM) | > 100 | 6 (≈ 27 µM) | > 10 | 100 | 70 (≈ 315 µM) | > 100 | > 100 | > 100 | > 10 | > 100 | > 100 | 10 | 70 (≈ 315 µM) | > 200 | > 100 | > 10 | > 10 | IC50 (HEL [3]): 4 µg/mL (≈ 18 µM); MCC (HEL [9]): 40 µg/mL; IC50 (HEL [14]): 10 µg/mL (≈ 45 µM); CC50 [19]: 70 µg/mL (≈ 315 µM); MCC (HEL [22]): 40 µg/mL; IC50 (HEL [23]): > 10 µg/mL; IC50 (HEL [26]): 7 µg/mL (≈ 31.5 µM)
Nc1nc2c(ncn2COC(CO)CO)c(=O)[nH]1 [GANCICLOVIR] | – | – | 200 (≈ 784 µM) | – | – | 2 (≈ 7.84 µM) | – | – | – | – | – | – | – | – | – | – | – | – | – | – | MCC (HEL [9]): > 100 µg/mL; IC50 (HEL [23]): 1.5 µg/mL (≈ 5.88 µM)
Nc1ncnc2c1ncn2C[C@H](O)CO [(S)-DHPA] | > 400 | 40 (≈ 191 µM) | – | > 400 | – | – | > 400 | 20 (≈ 95.6 µM) | > 400 | 40 (≈ 191 µM) | 100 (≈ 478 µM) | 70 (≈ 335 µM) | 40 (≈ 191 µM) | > 400 | > 400 | > 400 | 100 (≈ 478 µM) | 200 (≈ 956 µM) | > 400 | > 400 | –
Nc1nccc2c1ncn2[C@@H]1O[C@H](CO)[C@@H](O)[C@H]1O | > 400 | 2 (≈ 7.51 µM) | – | 300 (≈ 1130 µM) | – | – | > 400 | 0.7 (≈ 2.63 µM) | > 400 | 0.7 (≈ 2.63 µM) | > 400 | 2 (≈ 7.51 µM) | 0.7 (≈ 2.63 µM) | > 400 | > 400 | 4 (≈ 15 µM) | > 400 | 200 (≈ 751 µM) | > 400 | > 400 | –
OCCOCc1c(-c2ccccc2)nc2ccccn12 | > 200 | > 200 | 130 (≈ 485 µM) | > 200 | > 40 | > 40 | 400 | 70 (≈ 261 µM) | > 200 | > 100 | > 100 | > 200 | > 200 | > 200 | 400 | > 200 | > 200 | > 100 | > 200 | > 200 | IC50 (HEL [3]): > 40 µg/mL; MCC (HEL [9]): 100 µg/mL; IC50 (HEL [14]): > 40 µg/mL; CC50 [19]: 135 µg/mL (≈ 503 µM); MCC (HEL [22]): > 40 µg/mL; IC50 (HEL [23]): > 40 µg/mL; IC50 (HEL [26]): > 40 µg/mL
NC(=O)c1ncn([C@@H]2O[C@H](CO)[C@@H](O)[C@H]2O)n1 [RIBAVIRIN] | > 400 | 100 (≈ 409 µM) | – | 150 (≈ 614 µM) | – | – | > 400 | 70 (≈ 287 µM) | 300 (≈ 1230 µM) | 150 (≈ 614 µM) | 300 (≈ 1230 µM) | 20 (≈ 81.9 µM) | 70 (≈ 287 µM) | 70 (≈ 287 µM) | > 400 | 70 (≈ 287 µM) | > 400 | 300 (≈ 1230 µM) | 70 (≈ 287 µM) | 70 (≈ 287 µM) | –
Nc1nc2c(ncn2COCCO)c(=O)[nH]1 [ACYCLOVIR] | – | – | – | – | 0.32 (≈ 1.42 µM) | – | – | – | – | – | – | – | – | – | – | – | – | – | – | – | IC50 (HEL [14]): 0.23 µg/mL (≈ 1.02 µM); CC50 [19]: > 50 µg/mL; MCC (HEL [22]): > 40 µg/mL; IC50 (HEL [26]): 9 µg/mL (≈ 40 µM)
